Where “and” joins values, the source holds several entries; their conditions need not be identical. Identical values can stand only once.
Assays:
[1] = test system: Triticum aestivum (spring wheat, TRZAS); type: in vivo; settings: c1-3 Compound A 7.5/10/15; c4-5 Fluroxypyr-MHE 100/140; c6-8, c9-11 A 7.5/10/15 + Fluroxypyr-MHE 100, 140 g/ha
[2] = test system: Anthemis arvensis (field chamomile, ANTAR); assay: Greenhouse postemergence trial ANTAR; type: in vivo; settings: c1-3 Compound A 7.5/10/15; c4-5 Fluroxypyr-MHE 100/140; c6-8, c9-11 A 7.5/10/15 + Fluroxypyr-MHE 100, 140 g/ha
[3] = test system: Cyanus segetum (cornflower, CENCY); assay: Greenhouse postemergence trial CENCY; type: in vivo; settings: c1-3 Compound A 7.5/10/15; c4-5 Fluroxypyr-MHE 100/140; c6-8, c9-11 A 7.5/10/15 + Fluroxypyr-MHE 100, 140 g/ha
[4] = test system: Galium aparine (cleavers, GALAP); assay: Greenhouse postemergence trial GALAP; type: in vivo; settings: c1-3 Compound A 7.5/10/15
Experimental: (§1) Seeds of the desired test plant species were planted in a 90:10% v/v (volume/volume) mixture of PRO-MIX® BX (Premier Tech Horticulture, Quakertown, PA, USA) and PROFILE® GREENS GRADE™ (Profile Products LLC, Buffalo Grove, IL, USA) planting mixture, which typically has a pH of 5.2 to 6.2 and an organic matter content of at least 50 percent, in plastic pots with a surface area of 103.2 square centimeters (cm^2). […] The plants were grown for 7-36 days (d) in a greenhouse with an approximate 14-hour (h) photo-period which was maintained at about 23° C. during the day and 22° C. during the night. Nutrients and water were added on a regular basis and supplemental lighting was provided with overhead metal halide 1000-Watt lamps as necessary. The plants were employed for testing when they reached the second or third true leaf stage.
(§2) Emulsifiable concentrates of each of each pyridine carboxylate herbicide (Compound A or Compound B) were prepared at 100 grams acid equivalent per liter (g ae/L). The emulsifiable concentrates also included a safener, cloquintocet-mexyl, at 120 grams active ingredient per liter (g ai/L), unless otherwise noted below. An aliquot of each emulsifiable concentrate was placed in a 25 mL glass vial and diluted with an aqueous mixture of 1.25% (v/v) ACTIROB® B esterified rapeseed oil (Bayer Crop Science, Research Triangle Park, NC, USA) or MSO® Concentrate with LECI-TECH® methylated soybean oil (Loveland Products, Loveland, CO, USA) to obtain concentrated stock solutions at the highest application rate for each herbicide, based upon a 12 milliliter (mL) application volume at a rate of 187 liters per hectare (L/ha). The concentrated stock solutions were further diluted with an aqueous mixture of 1.25% v/v ACTIROB® B or MSO® Concentrate with LECI-TECH® to obtain stock solutions at reduced application rates for each herbicide. Spray solutions of the herbicide combinations (Compound A or Compound B plus synthetic auxin herbicide or auxin transport inhibitor) were prepared by adding weighed amounts or aliquots of the synthetic auxin herbicide or auxin transport inhibitor to the stock solutions of Compound A or Compound B to form 12-mL spray solutions in two-way combinations.
(§3) The spray solutions were applied to the plant material with an overhead Mandel track sprayer equipped with 8002E nozzles calibrated to deliver 187 L/ha over an application area of 0.503 square meters (m^2) at a spray height of 18 inches (43 centimeters (cm)) above the average plant canopy. Control plants were sprayed in the same manner with the solvent blank. All pyridine carboxylate herbicide (component a) application rates are given as “g ae/ha” and all synthetic auxin herbicide or auxin transport inhibitor (component b) application rates are given as “g ai/ha.”
(§4) The treated plants and control plants were placed in a greenhouse as described above and watered by sub-irrigation to prevent wash-off of the test compounds. After 20-22 d, the condition of the test plants as compared with that of the control plants was determined visually and scored on a scale of 0 to 100 percent where 0 corresponds to no injury and 100 corresponds to complete kill.

[5] = test system: Hordeum vulgare (winter barley, HORVW); assay: Greenhouse postemergence crop phytotoxicity HORVW; type: in vivo; settings: c1-3 Compound A 7.5/10/15; c4-5 Fluroxypyr-MHE 100/140; c6-8, c9-11 A 7.5/10/15 + Fluroxypyr-MHE 100, 140 g/ha
[6] = test system: Veronica persica (bird's-eye speedwell, VERPE); assay: Greenhouse postemergence trial VERPE; type: in vivo; settings: c1-3 Compound A 7.5/10/15; c4-5 Fluroxypyr-MHE 100/140; c6-8, c9-11 A 7.5/10/15 + Fluroxypyr-MHE 100, 140 g/ha
[7] = test system: Veronica hederifolia (ivyleaf speedwell, VERHE); assay: Greenhouse postemergence trial VERHE; type: in vivo; settings: c1-3 Compound A 7.5/10/15
[8] = test system: Triticum aestivum (winter wheat, TRZAW); assay: Greenhouse postemergence crop phytotoxicity TRZAW; type: in vivo; settings: c1-3 Compound A 7.5/10/15; c4-5 Fluroxypyr-MHE 100/140; c6-8, c9-11 A 7.5/10/15 + Fluroxypyr-MHE 100, 140 g/ha
Experimental: as §1, §2, §3, §4

[9] = test system: Viola tricolor (wild pansy, VIOTR); assay: Greenhouse postemergence trial VIOTR; settings: c1-3 Compound A 7.5/10/15;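 further: greenhouse plants sprayed at second to third true leaf stage, injury rated visually after 20-22 d against solvent-blank sprayed controls, 0 meaning no injury and 100 complete kill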
[10] = test system: Capsella bursa-pastoris (shepherd's purse, CAPBP); assay: Greenhouse postemergence trial CAPBP; type: in vivo; settings: c1-3 Compound A 7.5/10/15
Experimental: as §1, §2, §3, §4

[11] = test system: Viola arvensis (field violet, VIOAR); assay: Greenhouse postemergence trial VIOAR; type: in vivo; settings: c1-3 Compound A 7.5/10/15; c4-5 Fluroxypyr-MHE 100/140; c6-8, c9-11 A 7.5/10/15 + Fluroxypyr-MHE 100, 140 g/ha
Experimental: as §1, §2, §3, §4

[12] = test system: Stellaria media (chickweed, STEME); assay: Greenhouse postemergence trial STEME; type: in vivo; settings: c1-3 Compound A 7.5/10/15
Experimental: as §1, §2, §3, §4

[13] = test system: Hordeum vulgare (spring barley, HORVS); type: in vivo; settings: c1-3 Compound A 7.5/10/15; c4-5 Fluroxypyr-MHE 100/140; c6-8, c9-11 A 7.5/10/15 + Fluroxypyr-MHE 100, 140 g/ha
Experimental: as §1, §2, §3, §4

[14] = test system: Lamium purpureum (purple deadnettle, LAMPU); assay: Greenhouse postemergence trial LAMPU; settings: c1-3 Compound A 7.5/10/15
[15] = test system: Papaver rhoeas (corn poppy, PAPRH); assay: Greenhouse postemergence trial PAPRH; type: in vivo; settings: c1-3 Compound A 7.5/10/15
[16] = test system: Matricaria discoidea (pineapple weed, MATMT); assay: Greenhouse postemergence trial MATMT; type: in vivo; settings: c1-3 Compound A 7.5/10/15; c4-5 Fluroxypyr-MHE 100/140; c6-8, c9-11 A 7.5/10/15 + Fluroxypyr-MHE 100, 140 g/ha
[17] = test system: Papaver rhoeas (corn poppy), herbicide-resistant (PAPRH-R); assay: Greenhouse postemergence trial PAPRH-R; type: in vivo; settings: c1-3 Compound A 7.5/10/15
[18] = test system: Matricaria inodora (false chamomile, MATIN); assay: Greenhouse postemergence trial MATIN; type: in vivo; settings: c1-3 Compound A 7.5/10/15
Experimental: as §1, §2, §3, §4

[19] = c4-5 Fluroxypyr-MHE 100/140, c6-8, c9-11 A 7.5/10/15 + Fluroxypyr-MHE 100, 140 g/ha
[20] = c4-6 Clopyralid 30/60/120, c7-9, c10-12, c13-15 A 7.5/10/15 + Clopyralid 30, 60, 120 g/ha

CCCCCCC(C)OC(=O)COc1nc(F)c(Cl)c(N)c1Cl (stereo not drawn) [Fluroxypyr-MHE, fluroxypyr-meptyl, reference compound] was tested, and the “% visual injury (crop phytotoxicity)” value [1] was 0%, the “% visual injury” value [2] was 30% and 35% and the “% visual injury” value [3] was 60% and 95%. For the same compound, the “% visual injury” value [4, 19] was 85% and 95%, the “% visual injury (crop phytotoxicity)” value [5] was 0% and the “% visual injury” value [6] was 70% and 85%. The “% visual injury” value [7, 19] was 30% and 60%, the “% visual injury (crop phytotoxicity)” value [8] was 0% and the “% visual injury” value [9, 19] was 50%. The “% visual injury” value [10, 19] was 0%, the “% visual injury” value [11] was 20% and the “% visual injury” value [12, 19] was 70% and 75%. For the same compound, the “% visual injury (crop phytotoxicity)” value [13] was 0%, the “% visual injury” value [14, 19] was 60% and 65% and the “% visual injury” value [15, 19] was 10%. The “% visual injury” value [16] was 0%, the “% visual injury” value [17, 19] was 10% and the “% visual injury” value [18, 19] was 10% and 15%.
For O=C(O)c1nc(Cl)ccc1Cl [Clopyralid, clopyralid, reference compound], the “% visual injury” value [4, 20] was 0%, the “% visual injury” value [7, 20] was 0% and the “% visual injury” value [9, 20] was 0%. For the same compound, the “% visual injury” value [10, 20] was 0%, the “% visual injury” value [12, 20] was 0% and the “% visual injury” value [14, 20] was 0%. For the same compound, the “% visual injury” value [15, 20] was 0%, the “% visual injury” value [17, 20] was 0% and the “% visual injury” value [18, 20] was 35%.

From US12568967B2, “Compositions comprising pyridine carboxylate herbicides with synthetic auxin herbicides or auxin transport inhibitors” (priority 2018, dated 2026)
